pIC50: −log10 of the molar value.
Experiments:
[1] = target: human CARM1 (PRMT4) (Homo sapiens (Human), UniProt Q86X55); assay: CARM1 enzyme assay on peptide substrate (3H-SAM Flashplate); conditions: Biochemical potencies, read-out: Biochem IC50
Excerpt: S-adenosylmethionine (SAM), S-adenosylhomocysteine (SAH), bicine, Tween20, dimethylsulfoxide (DMSO), bovine skin gelatin (BSG), sodium butyrate and Tris(2-carboxyethyl)phosphine hydrochloride solution (TCEP) were purchased from Sigma-Aldrich at the highest level of purity possible. ^3H-SAM was purchase from American Radiolabeled Chemicals with a specific activity of 80 Ci/mmol. 384-well streptavidin Flashplates were purchased from PerkinElmer.
Peptide representative of human histone H3 residues 16-30 was synthesized with an N-terminal linker-affinity tag motif and a C-terminal amide cap by 21st Century Biochemicals. […] The sequence was Biot-Ahx-[…]-amide and contained a monomethylated arginine at position 26 (SEQ ID NO.:1).
The gene sequence encoding isoform 1 containing a deletion of amino acids 539-561 was amplified subsequently and subcloned into pFastBacMam (Viva Biotech).
Recombinant baculovirus were generated according to Bac-to-Bac kit instructions (Life Technologies). Protein over-expression was accomplished by infecting exponentially growing HEK 293F cell culture at 1.3×10^6 cell/ml with virus (MOI=10) in the presence of 8 mM sodium butyrate. Infections were carried out at 37° C. for 48 hours, harvested by centrifugation, and stored at −80° C. for purification.
Expressed full-length human Flag- and His-tagged CARM1 protein was purified from cell paste by anti-flag M2 affinity chromatography with resin equilibrated with buffer containing 20 mM Tris, 150 mM NaC, 5% glycerol, pH 7.8. Column was washed with 500 mM NaCl in buffer A and Flag-CARM1-His was eluted with 200 ug/ml FLAG peptide in buffer A. Pooled fractions were dialyzed in 20 mM Tris, 150 mM NaCl, 5% glycerol and 1 mM DTT, pH 7.8.
The assays were all performed in a buffer consisting of 20 mM Bicine (pH=7.6), 1 mM TCEP, 0.005% BSG, and 0.002% Tween 20, prepared on the day of use. Compounds in 100% DMSO (1 ul) were spotted into a polypropylene 384-well V-bottom plates (Greiner) using a Platemate Plus outfitted with a 384-channel head (Thermo Scientific). DMSO (1 ul) was added to Columns 11, 12, 23, 24, rows A-H for the maximum signal control and 1 ul of SAH, a known product and inhibitor of CARM1, was added to columns 11, 12, 23, 24, rows I-P for the minimum signal control. A cocktail (40 ul) containing the CARM1 enzyme was added by Multidrop Combi (Thermo-Fisher). The compounds were allowed to incubate with CARM1 for 30 min at room temperature, then a cocktail (10 ul) containing ^3H-SAM and peptide was added to initiate the reaction (final volume=51 ul). The final concentrations of the components were as follows: CARM1 was 0.25 nM, ^3H-SAM was 30 nM, peptide was 250 nM, SAH in the minimum signal control wells was 1 mM, and the DMSO concentration was 2%. The assays were stopped by the addition of non-radiolabeled SAM (10 ul) to a final concentration of 300 uM, which dilutes the ^3H-SAM to a level where its incorporation into the peptide substrate is no longer detectable. 50 ul of the reaction in the 384-well polypropylene plate was then transferred to a 384-well Flashplate and the biotinylated peptides were allowed to bind to the streptavidin surface for at least 1 hour before being washed once with 0.1% Tween20 in a Biotek ELx405 plate washer. The plates were then read in a PerkinElmer TopCount plate reader to measure the quantity of ^3H-labeled peptide bound to the Flashplate surface, measured as disintegrations per minute (dpm) or alternatively, referred to as counts per minute (cpm).
The Hill Coefficient normally allowed to float but may also be fixed at 1 in a 3-parameter fit.

[2] = tested on: asymmetric di-methyl PABP1 in RKO cells; assay: RKO methylation assay, In Cell Western (ICW) for asymmetric di-methyl PABP1; format: cell-based; conditions: Cellular potencies, ICW PABP1me2a
How it was run: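 In-cell Western on fixed RKO cells after 48 h compound exposure: anti-asymmetric di-methyl PABP1 signal at 800 nm over DRAQ5 DNA signal at 700 nm. Percent inhibition set between DMSO wells and wells with 20 μM reference compound; IC50 curves fitted in triplicate.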

Sequence of human CARM1 (PRMT4) (Q86X55 other isoform, or with tags, fused parts or gaps isoform Q86X55-1): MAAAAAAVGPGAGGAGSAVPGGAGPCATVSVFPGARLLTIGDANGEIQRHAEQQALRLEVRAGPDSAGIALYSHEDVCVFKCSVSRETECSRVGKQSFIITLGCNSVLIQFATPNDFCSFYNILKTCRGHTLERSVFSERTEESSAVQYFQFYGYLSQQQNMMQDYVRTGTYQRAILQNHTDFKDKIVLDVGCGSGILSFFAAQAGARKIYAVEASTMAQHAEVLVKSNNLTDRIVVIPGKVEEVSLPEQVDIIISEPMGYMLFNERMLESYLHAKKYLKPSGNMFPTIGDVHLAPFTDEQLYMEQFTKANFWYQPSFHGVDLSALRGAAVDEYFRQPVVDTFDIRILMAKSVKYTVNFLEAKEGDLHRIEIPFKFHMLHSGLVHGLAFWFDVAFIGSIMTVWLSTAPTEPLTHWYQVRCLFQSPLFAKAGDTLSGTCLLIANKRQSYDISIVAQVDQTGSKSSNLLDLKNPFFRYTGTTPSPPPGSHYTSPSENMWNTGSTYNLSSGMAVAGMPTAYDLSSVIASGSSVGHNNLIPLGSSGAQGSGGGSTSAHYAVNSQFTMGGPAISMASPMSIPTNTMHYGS

SMILES | pIC50 [1] | pIC50 ([2]; Homo sapiens, RKO) | pIC50 [2]
CNCC(O)COc1cc(Cl)cc(-c2nc(N[C@@H]3CCOC3)c(C)c(C(=O)NCC3CCOCC3)n2)c1 (some centres unmarked) [Example 336-1a] | 6.00 to 7.00 | 4.70 to 5.00 | 
CNCC(O)COc1cc(-c2nc(NC3CCOCC3)c(C)c(-c3c(C)noc3C)n2)ccc1F (centres unmarked) [Example 52-3] | 6.00 to 7.00 | ≤ 4.70 | 
CNCC(O)COc1cccc(-c2nc(C(=O)NC3CCOCC3)c(C)c(-c3c(C)noc3C)n2)c1 (centres unmarked) [Example 62-1a] | 5.52 to 6.00 | 4.70 to 5.00 | 
CCS(=O)(=O)N1CCN(c2cc(N(C)C3CCOCC3)nc(-c3cccc(OCC(O)CNC)c3)n2)C[C@@H]1C (some centres unmarked) [Example 497-1a] | 6.00 to 7.00 | > 5.30 | 
CNCC(O)COc1cccc(-c2nc(NC3CCOCC3)cc(C3CC3)n2)c1 (centres unmarked) [Example 646-1a] | 6.00 to 7.00 | ≤ 4.70 | 
CNCC(O)COc1cccc(-c2nc(-c3cccc4ncccc34)cc(N(CCOC)CCOC)n2)c1 (centres unmarked) [Example 639-1a] | 6.00 to 7.00 | ≤ 4.70 | 
CNCC(O)COc1cccc(-c2nc(N3CCN(C(=O)OC)CC3)cc(N(C)C3CCOCC3)n2)c1 (centres unmarked) [Example 585-1a] | 6.00 to 7.00 | 4.70 to 5.00 | 
CNC[C@@H](O)COc1cccc(-c2nc(N[C@@H]3CCOC3)c(C)c(-c3cn(S(C)(=O)=O)c4ncncc34)n2)c1 [Example 453-1a] | 6.00 to 7.00 | 5.00 to 5.30 | 
CNCC(O)COc1cccc(-c2nc(N3CCN(CC(F)F)[C@@H](C)C3)cc(N(C)C3CCOCC3)n2)c1 (some centres unmarked) [Example 595-1a] | 6.00 to 7.00 | 4.70 to 5.00 | 
CNCC(O)COc1cccc(-c2nc(Nc3c(C)noc3C)cc(-c3c(C)noc3C)n2)c1 (centres unmarked) [Example 48-1a] | 5.52 to 6.00 | 4.70 to 5.00 | 
CNCC(O)COc1cccc(-c2nc(-c3ccncc3)cc(N(C)C3CCN(C(C)=O)CC3)n2)c1 (centres unmarked) [Example 671-1a] | 6.00 to 7.00 | ≤ 4.70 | 
CNC[C@@H](O)COc1ccc(Cl)c(-c2nc(-c3c(C)noc3C)c(C)c(C3(C)CC3)n2)c1 [Example 262-3] | 6.00 to 7.00 | ≤ 4.70 | 
CNCC(O)COc1cccc(-c2nc(N[C@@H]3CCOC3)c(C)c(N3CCN(C(C)=O)CC34CC4)n2)c1 (some centres unmarked) [Example 438-1a] | 6.00 to 7.00 | 4.70 to 5.00 | 
CNCC(O)COc1cccc(-c2nc(N[C@@H]3CC[C@H](C(=O)NC)C3)c(C)c(N3CCOCC3)n2)c1 (some centres unmarked) [Example 680-1a] | 6.00 to 7.00 | ≤ 4.70 | 
CNCC(O)COc1cccc(-c2nc(N[C@H]3CO[C@H]4OCC[C@H]43)cc(N3CCOCC3)n2)c1 (some centres unmarked) [Example 672-1a] | 6.00 to 7.00 |  | 4.70 to 5.00
CNCC(O)COc1cccc(-c2nc(-c3c(C)n[nH]c3C)cc(N(C)C3CCOCC3)n2)c1 (centres unmarked) [Example 534-1a] | 6.00 to 7.00 | 5.00 to 5.30 | 
CNCC(O)COc1cccc(-c2nc(N[C@@H]3CCOC3)c(C3CC3)c(N3CCOCC3)n2)c1 (some centres unmarked) [Example 413-1a] | 6.00 to 7.00 | 4.70 to 5.00 | 
CNCC(O)COc1cc(-c2nc(N(C)C3CCOCC3)c(C)c(-n3cccn3)n2)cc(-n2cccn2)c1 (centres unmarked) [Example 598-1a] | 6.00 to 7.00 | 4.70 to 5.00 | 
CNCC(O)COc1cccc(-c2nc(-c3cc4ccccc4o3)cc(N(CCOC)CCOC)n2)c1 (centres unmarked) [Example 640-1a] | 6.00 to 7.00 | ≤ 4.70 | 
CCCCOc1nc(-c2ccc(F)c(OCC(O)CNC)c2)nc(-c2c(C)noc2C)c1C (centres unmarked) [Example 50-3] | 6.00 to 7.00 | ≤ 4.70 | 
CNCC(O)COc1cccc(-c2nc(N3CCN(CCF)CC3)cc(N(C)C3CCOCC3)n2)c1 (centres unmarked) [Example 596-1a] | 6.00 to 7.00 | 4.70 to 5.00 | 
CNCC(O)COc1cccc(-c2nc(-c3c(C)ncnc3C)cc(N(C)C3CCOCC3)n2)c1 (centres unmarked) [Example 556-1a] | 6.00 to 7.00 | 4.70 to 5.00 | 
CNCC(O)COc1cccc(-c2nc(N[C@@H]3CCOC3)c(C)c(N3CCCC3c3nc(C)no3)n2)c1 (some centres unmarked) [Example 472-1a] | 6.00 to 7.00 | 4.70 to 5.00 | 
CNCC(O)COc1cccc(-c2nc(Nc3c(C)nn(C)c3C)cc(-c3c(C)noc3C)n2)c1 (centres unmarked) [Example 122-1a] | 5.52 to 6.00 | 4.70 to 5.00 | 

SMILES | pIC50 [1] | pIC50 ([2]; Homo sapiens, RKO) | pIC50 [2]
CNCC(O)COc1cccc(-c2nc(NCC(F)(F)F)cc(-c3cncnc3)n2)c1 (centres unmarked) [Example 626-1a] | 5.52 to 6.00 | ≤ 4.70 | 
CNC[C@H](O)COc1ccc(F)c(-c2nc(-c3c(C)noc3C)c(C)c(-c3c(C)noc3C)n2)c1 [Example 81-3] | 5.52 to 6.00 | ≤ 4.70 | 
CNCC(O)COc1cccc(-c2nc(N[C@@H]3CCOC3)c(C)c(C(=O)N(C)CC3CCOCC3)n2)c1 (some centres unmarked) [Example 364-1a] | 6.00 to 7.00 | 4.70 to 5.00 | 
CNCC(O)COc1cccc(-c2nc(-c3ccnc(C(=O)N(C)C)c3)cc(N(C)C3CCOCC3)n2)c1 (centres unmarked) [Example 535-1a] | 6.00 to 7.00 | 5.00 to 5.30 | 
CNCC(O)COc1cccc(-c2nc(-c3cccc(C#N)c3)cc(N(CCOC)CCOC)n2)c1 (centres unmarked) [Example 629-1a] | 6.00 to 7.00 | ≤ 4.70 | 
CNCC(O)COc1cccc(-c2nc(NC3CCOCC3)c(C)c(N3CCNC(C)(C)C3)n2)c1 (centres unmarked) [Example 664-1a] | 6.00 to 7.00 | ≤ 4.70 | 
CNCC(O)COc1cc(Cl)cc(-c2nc(C(=O)N(C)C)cc(N(C)C3CCOCC3)n2)c1 (centres unmarked) [Example 557-1a] | 6.00 to 7.00 | 4.70 to 5.00 | 
CNCC(O)COc1cccc(-c2nc(N[C@@H]3CCOC3)c(C)c(-c3ccc[nH]c3=O)n2)c1 (some centres unmarked) [Example 371-1a] | 5.52 to 6.00 | 4.70 to 5.00 | 
CNCC(O)COc1cccc(-c2nc(NCCOC)cc(-c3ccc(S(C)(=O)=O)cc3)n2)c1 (centres unmarked) [Example 637-1a] | 6.00 to 7.00 | ≤ 4.70 | 
CNCC(O)COc1cccc(-c2cc(C3CCOCC3)nc(N[C@H]3CCOC3)n2)c1 (some centres unmarked) [Example 10-2] | 6.00 to 7.00 |  | 
CNCC(O)COc1cccc(-c2nc(NC3CCOC3=O)cc(-c3c(C)noc3C)n2)c1 (centres unmarked) [Example 24-1a] | 6.00 to 7.00 |  | 
CNCC(O)COc1cccc(-c2nc(NC3CCOCC3)cc(N(C)C)n2)c1 (centres unmarked) [Example 8-1] | 6.00 to 7.00 |  | 
NCC(O)COc1cccc(-c2cc(N3CCOCC3)nc(N3CCOCC3)n2)c1 (centres unmarked) [Example 7-2] | 6.00 to 7.00 |  | 
CNCC(O)COc1cccc(-c2nc(N(C)C3CCOCC3)cc(N3C[C@H]4C[C@@H]3CN4)n2)c1 (some centres unmarked) [Example 562-1a] |  | 4.70 to 5.00 | 
CNCC(O)COc1cccc(-c2nc(-c3c(C)noc3C)cc(N3CCN(C(=O)N(C)C)CC3)n2)c1 (centres unmarked) [Example 120-1a] |  | > 5.30 | 
CNCC(O)COc1cc(Cl)cc(-c2nc(NC3CCOCC3)cc(-c3c(C)noc3C)n2)c1 (centres unmarked) [Example 7-1a] |  | 4.70 to 5.00 | 
CNCC(O)COc1cccc(-c2nc(N[C@H]3CC[C@@H](O)CC3)cc(-c3c(C)noc3C)n2)c1 (some centres unmarked) [Example 33-1a] |  | 5.00 to 5.30 | 
CNCC(O)COc1cccc(-c2nc(N3CCN(C)C(=O)C3)cc(N(C)C3CCOCC3)n2)c1 (centres unmarked) [Example 549-1a] |  | 4.70 to 5.00 | 
CNCC(O)COc1cccc(-c2nc(NCC3(N(C)C)CCOCC3)c(C)c(-c3c(C)noc3C)n2)c1 (centres unmarked) [Example 140-1a] |  | > 5.30 | 
CNCC(O)COc1cccc(-c2nc(-c3cccc(C#N)c3)cc(N(C)C3CCOCC3)n2)c1 (centres unmarked) [Example 622-1a] |  | 4.70 to 5.00 | 
CNCC(O)COc1cccc(-c2nc(-c3c(C)noc3C)c(C)c(N(C)C3CCOCC3)n2)c1 (centres unmarked) [Example 34-1a] |  | > 5.30 | 
CNC[C@@H](O)COc1ccc(Cl)c(-c2nc(-c3c(C)noc3C)c(C)c(N3Cc4nc(C)sc4C3)n2)c1 [Example 192-3] |  | > 5.30 | 
CNCC(O)COc1cccc(-c2nc(NC3C4COCC43)c(C)c(-c3c(C)noc3C)n2)c1 (centres unmarked) [Example 212-1a] |  | > 5.30 | 
